Measured values from ChEMBL document CHEMBL6096702, “Discovery of a Novel p38α-MK2 Complex Inhibitor as a Potential Choice for Autoimmune Diseases” (J Med Chem, 2025).

Test: Inhibition of N-terminal GST-tagged wildtype human P38alpha (4 to 152 residues) extracted from Escherichia coli/GST-tagged MK2 (unknown origin) assessed as reduction in HSP27 phosphorylation incubated for 2 hrs in presence of ATP and HSP27-FITC peptide by fluorescence polarization based IMAP assay

Row | IC50 [nM] | SMILES
1 | > 10000 | Cc1cnc(-c2ccnc(C(C)(C)O)n2)cc1-n1c(C)cc(Oc2ncc(F)cc2F)c(Cl)c1=O
2 | 0.7 | Cc1cnc(-c2cccc(C(C)(C)O)c2F)c(F)c1-n1c(C)cc(O[C@@H](C)c2ncc(F)cc2F)c(Cl)c1=O
3 | > 10000 | Cc1cnc(-c2ccnc(C(C)(C)O)n2)cc1-c1c(C)cc(OCc2ncc(F)cc2F)c(Cl)c1F
4 | 1150 | Cc1cnc(-c2ccnc(C(C)(C)O)n2)cc1-n1ncc(OCc2ncc(F)cc2F)c(Cl)c1=O
5 | 5.3 | Cc1cnc(-c2cccc(C(C)(C)O)c2)cc1-n1c(C)cc(OCc2ncc(F)cc2F)c(Cl)c1=O

Test: Inhibition of N-terminal GST-tagged wildtype human P38alpha (4 to 152 residues) extracted from Escherichia coli/GST-tagged PRAK (unknown origin) assessed as reduction in HSP27 phosphorylation incubated for 2 hrs in presence of ATP and HSP27-FITC peptide by fluorescence polarization based IMAP assay

Row | IC50 [nM] | SMILES
6 | 23 | Cc1cnc(-c2cccc(C(C)(C)O)c2F)c(F)c1-n1c(C)cc(O[C@@H](C)c2ncc(F)cc2F)c(Cl)c1=O
7 | 1950 | Cc1cnc(-c2cccc(C(C)(C)O)c2)cc1-n1c(C)cc(OCc2ncc(F)cc2F)c(Cl)c1=O

Test: Selectivity ratio of IC50 for inhibition of N-terminal GST-tagged wildtype human P38alpha (4 to 152 residues) extracted from Escherichia coli/GST-tagged PRAK (unknown origin) to IC50 for inhibition of N-terminal GST-tagged wildtype human P38alpha (4 to 152 residues) extracted from Escherichia coli/GST-tagged MK2 (unknown origin)

Row | Ratio IC50 | SMILES
8 | 33 | Cc1cnc(-c2cccc(C(C)(C)O)c2F)c(F)c1-n1c(C)cc(O[C@@H](C)c2ncc(F)cc2F)c(Cl)c1=O
9 | 368 | Cc1cnc(-c2cccc(C(C)(C)O)c2)cc1-n1c(C)cc(OCc2ncc(F)cc2F)c(Cl)c1=O
